Laboratory results as given in patent publication US20130171161A1, “METHOD AND COMPOSITION FOR THE TREATMENT OF DISEASES CAUSED BY OR ASSOCIATED WITH HIV” (priority 2010, published 2013).
Read-outs that look alike come from different tables or passages of the source.

Legend:
[1] = tested on: HIV-strain-1-LAI; assay: Inhibition of HIV replication (p24 content) in infected mononuclear cells of human blood, Example 3; type: cell-based, HIV-1; conditions: 1000 nM, day 7, read-out: inhibition of HIV reaction (p24 in supernatant)
Source text: The experimental study involved the affine purified rabbit polyclonal antibodies to the human IFN-gamma. The affine purified rabbit polyclonal antibodies to the human gamma interferon were used for development of the (potentiated) antibodies to the gamma interferon in a very-low-dose in the form of serial dilutions C12+C30+C50, obtained in accordance with a homeopathic technology (hereinafter referred to as Ab to IFN-γ in VLD).
Antiviral activity of the composition under review Ab to IFN-γ in VLD and azidothymidine (preparation, based on an active substance of Zidovudine) was studied within the context of mononuclear cells of the human blood, infected in vitro with the HIV-strain-1-LAI. The efficiency of replicating inhibition of HIV was assessed according to the content of a main nucleocapsid protein p24 HIV in the supernatant fluid of the mononuclear cells of the human peripheral blood. […]
Supernatant fluid of the cell culture was collected on the seventh (7) day subsequent to the contamination. The efficiency of the preparations was assessed according to the inhibition of HIV reaction, in its turn assessed in accordance with the content of a main nucleocapsid protein p24 HIV in the supernatant cells by method of IFA, immunofluorescent assay (Retrotek Elisa kit).

[2] = tested on: HIV-1 LAI; assay: Inhibition of HIV replication (p24 level) in human peripheral blood mononuclear cells infected in vitro, Example 1; type: cell-based; conditions: Human immunodeficiency virus 1, PBMC; 1000 nM added 24 hours before infection; day 7; read-out: inhibition of HIV replication (p24 in supernatant)
Experimental: The assessment of antiretroviral activity of ultra low-dose of rabbit polyclonal antibodies to CD4 receptor (a mixture of homoeopathic dilutions C12+C30+C50) (ULD Ab CD4)), was carried out using human peripheral blood mononuclear cells infected with the strain HIV-1 LAI in vitro.
Human peripheral blood mononuclear cells were isolated from blood of a seronegative healthy donor by centrifugation on a Ficoll-Hypaque density gradient. The cells were stimulated for 3 days with 1 μg/mL of phytohemagglutinin P and 5 IU/mL of recombinant human interleukin-2.
In order to assess antiretroviral activity the products were placed in a well containing 100 μL of activated mononuclears 24 hours before or 15 min after cell infection with the strain HIV-1-LAI at the dose of 100 TCID50 (50 μL inoculum of the strain HIV-1-LAI). Before adding to a well, ULD Ab CD4 (12.5 μL) or reference azidotimidine (1000 nM) were mixed with RPMI1640 medium (DIFCO) to achieve a final probe volume of 50 μL
The supernatant fluids were collected on day 7 after infection of cells. The products' activity was measured by the inhibition of HIV replication which was assessed by the level of core nucleocapsid protein p24 in the supernatant fluid from human peripheral blood mononuclear cells using Retrotek Elisa kit.

[3] = tested on: HIV-1 LAI; assay: Inhibition of HIV-reverse transcriptase activity in supernatant of infected human peripheral blood mononuclear cells, Example 2; type: cell-based; conditions: 8 nM; added 15-30 minutes after infection
Experimental: The assessment of antiretroviral activity of ultra low-dose rabbit polyclonal antibodies to CD4 (a mixture of homoeopathic dilutions C12+C30+C50) (hereinafter referred to as “ultra low-dose antibodies to CD4) was carried out using human peripheral blood mononuclear cells infected with the strain HIV-1 LAI in vitro. Azidothymidine (Sigma—AZ169-100 mg, lot 107K1578) was used as a comparator product.
Human peripheral blood mononuclear cells were isolated from blood of a seronegative healthy donor by centrifugation on a Ficoll-Hypaque density gradient. The cells were stimulated for 3 days with 1 μg/mL of phytohemagglutinin P and 5 IU/mL of recombinant human interleukin-2 in RPMI1640 (DIFCO) medium supplemented with 10% fetal calf serum (the complement was removed by heating for 45 minutes at 56° C.), 1% antibiotic solution (PSN Gibco containing 50 μg/mL of penicillin, 50 μg/mL of streptomycin and 100 μg/mL of neomycin). […]
The products' efficiency was established by the inhibition of HIV replication which was assessed by HIV-reverse transcriptase activity in the supernatant fluid from human peripheral blood mononuclear cells using the HIV RT RetroSys kit made by INNOVAGEN (Lot 10-059C). […]

Compound: Cc1cn([C@H]2C[C@H](N=[N+]=[N-])[C@@H](CO)O2)c(=O)[nH]c1=O [Azidothymidine]
- inhibition at 1 µM ([1]; Human immunodeficiency virus 1, 168 h, introduced 24 prior to contamination): 99%
- inhibition at 1 µM ([1]; Human immunodeficiency virus 1, introduced 15 minutes after contamination): 99 ± 1%
- inhibition at 1 µM [2]: 99%
- Inhibition of HIV-reverse transcriptase activity (% of control) Day 7 [3]: 58 ± 7 % of control
